Assay results reported in publication PMC5802278, “Molecular and cellular mechanisms of HIF prolyl hydroxylase inhibitors in clinical trials” (Chemical Science, 2017).
Like-named read-outs stand apart in the source and are kept apart here.

Tests used:
Format in all cases: biochemical
Tpa1p = target: T1, Tpa1p (Saccharomyces cerevisiae, UniProt P40032); assay: MALDI-TOF MS Tpa1p hydroxylation assay
T1 construct: His6 (N); made in house; host or cells: E. coli BL21(DE3)
Experimental: MALDI-TOF MS OFD1/TPA1p hydroxylation assays13
For enzyme production, the reported procedures were used.13 E. coli BL21(DE3) cells transformed with pNIC28-His6-Ofd1 or pNIC28-His6-Tpa1pΔ2-20 were cultured to an OD600 of 0.6; recombinant protein production was induced through the addition of isopropyl β-D-1-thiogalactopyranoside (IPTG) to a concentration of 0.5 mM. The induced cultures were […]
incubated overnight at 18°C with shaking, then harvested. The induced cells were suspended in 500 mM NaCl, 40 mM imidazole, 50 mM HEPES pH 7.5, sonicated, and the His-tagged protein was purified by nickel affinity chromatography.13 Both Ofd1 and Tpa1p were buffer-exchanged into 500 mM NaCl, 5% glycerol, 1 mM DTT, 50 mM HEPES pH 7.5 following […]
consisted of Ofd1 (1 µM) or Tpa1p (2 µM) with 2OG (20 µM), L-ascorbic acid (100 µM), (NH4)2Fe(SO4)2 (50 µM), RPS23 peptide (amino acid sequence
-CONH2; 25 µM) and the […]
relevant inhibitor (initially prepared in 10% DMSO, diluted to 1% DMSO in the reaction mixture) all in 50 mM HEPES pH 7.5. Reactions were quenched after 2 min (Ofd1) or 4 min (Tpa1p) by the addition of formic acid to a final concentration of 1%. The extent of hydroxylation was monitored by MALDI-TOF MS, and the IC50 curve was fit to the data using […]
LC-MS PHD2 hydroxylation assays
The PHD2 RF-MS RapidFire liquid chromatography mass spectrometry (RF-MS) assay monitors turnover of a C-terminal oxygenase dependent domain (CODD) peptide substrate […]
-CONH2 and appearance of the hydroxylated peptide product
(Pro564) in an endpoint type assay format (typical enzyme incubation time of 15 minutes).
Tris(hydroxymethyl)aminomethane was from Fisher. Ferrous ammonium sulfate (FAS), 2-oxoglutarate (2OG) and L-ascorbic acid were from Sigma Aldrich; solutions of these were prepared freshly each day. All inhibition assays were carried out in 384-well polypropylene plates (Greiner Bio-One). PHD2 assays were performed in assay buffer (50 mM Tris.Cl pH […]
were prepared using an ECHO 550 acoustic dispenser (Labcyte) and dry dispensed into 384-well polypropylene assay plates. The final assay concentration of DMSO was kept constant at 0.5%. PHD2 protein was prepared at a concentration of 300 nM in assay buffer and 25 μl dispensed across each 384-well assay plate. […] Peptide charge states were monitored in positive mode. Ion chromatogram data were extracted for the +2 charge state and peak area data integrated using RapidFire Integrator software (Agilent). % conversion of the CODD peptide substrate to the +16 hydroxylated peptide was calculated using the equation: % conversion = 100 x hydroxylated / (hydroxylated + non-hydroxylated peptide). IC50 values were determined from non-linear regression plots using GraphPad prism. […]

JARID1D (KDM5D) = JARID1D (KDM5D) (Homo sapiens, UniProt Q9BY66); assay: AlphaScreen histone demethylase assay
JARID1D (KDM5D), sequence (Q9BY66 whole entry): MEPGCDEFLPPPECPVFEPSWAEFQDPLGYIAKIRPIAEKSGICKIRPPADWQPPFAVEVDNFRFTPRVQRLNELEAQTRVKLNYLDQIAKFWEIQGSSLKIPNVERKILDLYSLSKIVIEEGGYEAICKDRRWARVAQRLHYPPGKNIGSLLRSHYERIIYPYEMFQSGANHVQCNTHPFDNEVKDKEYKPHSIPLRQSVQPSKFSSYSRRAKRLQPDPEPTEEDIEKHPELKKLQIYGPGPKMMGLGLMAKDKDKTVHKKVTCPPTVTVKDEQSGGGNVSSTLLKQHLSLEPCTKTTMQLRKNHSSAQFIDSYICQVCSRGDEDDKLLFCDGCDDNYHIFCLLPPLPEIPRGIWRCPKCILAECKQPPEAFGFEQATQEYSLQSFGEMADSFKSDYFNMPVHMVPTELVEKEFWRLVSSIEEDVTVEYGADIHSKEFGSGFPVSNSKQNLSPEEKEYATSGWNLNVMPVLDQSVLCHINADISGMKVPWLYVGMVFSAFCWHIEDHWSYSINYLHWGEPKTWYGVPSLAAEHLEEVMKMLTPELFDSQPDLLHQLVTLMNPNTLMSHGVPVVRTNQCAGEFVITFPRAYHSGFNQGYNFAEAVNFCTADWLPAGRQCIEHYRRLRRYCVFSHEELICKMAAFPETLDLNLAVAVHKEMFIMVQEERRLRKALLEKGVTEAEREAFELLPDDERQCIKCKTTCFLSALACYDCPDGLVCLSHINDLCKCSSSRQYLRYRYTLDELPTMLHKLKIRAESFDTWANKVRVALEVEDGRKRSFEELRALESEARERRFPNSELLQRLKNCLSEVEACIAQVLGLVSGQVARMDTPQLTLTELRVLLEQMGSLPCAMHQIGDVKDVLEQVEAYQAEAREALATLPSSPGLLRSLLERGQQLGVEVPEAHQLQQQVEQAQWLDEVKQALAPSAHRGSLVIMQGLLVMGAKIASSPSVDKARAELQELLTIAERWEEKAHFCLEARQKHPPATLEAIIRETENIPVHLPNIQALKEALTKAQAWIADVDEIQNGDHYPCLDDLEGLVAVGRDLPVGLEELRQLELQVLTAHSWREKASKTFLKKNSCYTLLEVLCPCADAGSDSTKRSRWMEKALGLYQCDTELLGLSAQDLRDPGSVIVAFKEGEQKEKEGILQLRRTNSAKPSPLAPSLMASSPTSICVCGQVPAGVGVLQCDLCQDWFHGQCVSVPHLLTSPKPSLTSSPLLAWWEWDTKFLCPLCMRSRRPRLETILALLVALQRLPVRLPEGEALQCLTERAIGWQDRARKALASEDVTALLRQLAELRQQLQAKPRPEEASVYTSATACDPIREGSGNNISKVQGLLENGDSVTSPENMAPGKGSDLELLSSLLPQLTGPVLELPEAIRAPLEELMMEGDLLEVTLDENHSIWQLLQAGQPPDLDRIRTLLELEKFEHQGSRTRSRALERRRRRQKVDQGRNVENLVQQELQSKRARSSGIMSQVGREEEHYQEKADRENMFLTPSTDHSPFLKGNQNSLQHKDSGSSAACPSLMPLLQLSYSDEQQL

JARID1A (KDM5A) = target: T2, JARID1A (KDM5A) (Homo sapiens, UniProt P29375); assay: AlphaScreen histone demethylase assay
T2 sequence (P29375 12-797 limits assumed): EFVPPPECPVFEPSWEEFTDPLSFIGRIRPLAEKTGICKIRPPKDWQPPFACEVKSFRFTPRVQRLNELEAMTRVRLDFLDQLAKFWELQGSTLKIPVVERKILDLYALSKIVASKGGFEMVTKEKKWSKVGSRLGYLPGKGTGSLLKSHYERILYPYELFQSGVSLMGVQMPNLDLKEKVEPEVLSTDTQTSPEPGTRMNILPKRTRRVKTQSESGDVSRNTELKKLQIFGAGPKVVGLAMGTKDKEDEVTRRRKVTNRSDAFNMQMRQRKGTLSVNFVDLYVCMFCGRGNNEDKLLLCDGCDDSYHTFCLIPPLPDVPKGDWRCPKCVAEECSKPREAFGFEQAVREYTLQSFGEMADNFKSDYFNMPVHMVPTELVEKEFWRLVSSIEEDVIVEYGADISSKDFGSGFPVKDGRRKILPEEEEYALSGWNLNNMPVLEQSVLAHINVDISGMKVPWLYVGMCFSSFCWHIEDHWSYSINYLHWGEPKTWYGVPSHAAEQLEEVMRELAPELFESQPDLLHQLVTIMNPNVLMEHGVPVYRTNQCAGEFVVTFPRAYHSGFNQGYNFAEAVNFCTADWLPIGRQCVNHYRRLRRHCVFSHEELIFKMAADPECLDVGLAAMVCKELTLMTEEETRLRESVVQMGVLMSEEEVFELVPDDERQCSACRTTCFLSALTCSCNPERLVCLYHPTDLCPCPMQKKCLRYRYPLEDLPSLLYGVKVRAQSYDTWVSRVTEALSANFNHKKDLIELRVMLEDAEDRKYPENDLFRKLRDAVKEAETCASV

[1] = isolated recombinant enzyme, 2 µM, read-out: IC50 Tpa1p

T1 sequence (P40032 with tags, fused parts or gaps): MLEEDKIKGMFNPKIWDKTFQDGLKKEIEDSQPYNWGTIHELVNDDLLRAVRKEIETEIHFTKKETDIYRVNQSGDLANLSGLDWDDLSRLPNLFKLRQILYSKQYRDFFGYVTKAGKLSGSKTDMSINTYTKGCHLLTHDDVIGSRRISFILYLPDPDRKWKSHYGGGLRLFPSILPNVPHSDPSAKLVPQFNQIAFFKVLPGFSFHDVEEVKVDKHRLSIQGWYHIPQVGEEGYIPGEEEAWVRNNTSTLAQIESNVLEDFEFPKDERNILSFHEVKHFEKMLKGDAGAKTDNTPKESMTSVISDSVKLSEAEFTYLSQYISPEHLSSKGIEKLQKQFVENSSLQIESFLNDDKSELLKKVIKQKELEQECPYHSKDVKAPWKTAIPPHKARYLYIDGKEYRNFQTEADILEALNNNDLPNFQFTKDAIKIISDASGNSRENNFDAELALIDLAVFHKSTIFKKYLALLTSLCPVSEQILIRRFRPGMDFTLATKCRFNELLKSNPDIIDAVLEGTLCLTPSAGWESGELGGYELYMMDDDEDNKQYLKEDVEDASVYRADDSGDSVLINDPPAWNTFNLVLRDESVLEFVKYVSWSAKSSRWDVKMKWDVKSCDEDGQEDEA

SMILES	IC50 (Tpa1p) [µM]	IC50 (JARID1D (KDM5D); read-out: IC50 JARID1D (KDM5D)) [µM]	IC50 (JARID1A (KDM5A); read-out: IC50 JARID1A (KDM5A)) [µM]	IC50 (Tpa1p; [1]) [µM]	IC50 (JARID1D (KDM5D)) [µM]	IC50 (JARID1A (KDM5A)) [µM]
CC(C)(C)OC(=O)c1ccc(-n2[nH]cc(-n3ccnn3)c2=O)nc1 [IOX4]	2.3	91	53	–	–	–
O=C(O)CNC(=O)c1ncc(-c2cccc(Cl)c2)cc1O [Vadadustat]	–	> 100	> 100	–	–	–
Cc1nc(C(=O)NCC(=O)O)c(O)c2ccc(Oc3ccccc3)cc12 [FG-4592]	–	> 100	> 100	12.8	–	–
O=c1c(-n2ccnn2)c[nH]n1-c1cc(N2CCOCC2)ncn1 [Molidustat]	–	> 100	> 100	3.8	–	–
O=C(O)CNC(=O)C1C(=O)N(C2CCCCC2)C(=O)N(C2CCCCC2)C1=O [GSK1278863]	5.1	–	–	–	> 100	> 100
